Test results published in patent US6737383B1, “Herbicidal oxadiazolidines” (priority 1999, dated 2004).

Tests used:
[1] = test system: Alexandergrass; experiment: Test D Alexandergrass; assay type: in vivo, Brachiaria plantaginea; conditions: Preemergence, 0 to 100 scale
Summary of the method: (§1)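 Greenhouse pots, sandy loam, single species per pot. Preemergence tests: soil-surface application ≤1 day after planting. Compound formulated in non-phytotoxic solvent with surfactant. Visual rating 14–21 DAT, scale 0–100.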

[2] = test system: common ragweed; experiment: Test D common ragweed; assay type: in vivo, Ambrosia elatior; conditions: Preemergence, 0 to 100 scale
Summary of the method: as §1

[3] = test system: common groundsel; experiment: Test D common groundsel; assay type: in vivo, Senecio vulgaris; conditions: Preemergence, 0 to 100 scale
Summary of the method: as §1

[4] = test system: dallisgrass; experiment: Test D dallisgrass; assay type: in vivo, Paspalum dilatatum; conditions: Preemergence, 0 to 100 scale
Summary of the method: as §1

[5] = test system: goosegrass; experiment: Test D goosegrass; assay type: in vivo, Eleusine indica; conditions: Preemergence, 0 to 100 scale
Summary of the method: as §1

[6] = test system: guineagrass; experiment: Test D guineagrass; assay type: in vivo, Panicum maximum; conditions: Preemergence, 0 to 100 scale
Summary of the method: as §1

[7] = test system: itchgrass; experiment: Test D itchgrass; assay type: in vivo, Rottboellia exaltata; conditions: Preemergence, 0 to 100 scale
Summary of the method: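 Scoring used a 0–100 visual injury scale, with 0 meaning no effect and 100 complete control, assessed 14–21 days after application alongside untreated pots. Preemergence treatments went onto sandy loam surfaces of separately potted seeds within a day of sowing.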

[8] = test system: Johnson grass; experiment: Test D Johnson grass; assay type: in vivo, Sorghum halepense; conditions: Preemergence, 0 to 100 scale
Summary of the method: as §1

[9] = test system: large crabgrass; experiment: Test D large crabgrass; assay type: in vivo, Digitaria sanguinalis; conditions: Preemergence, 0 to 100 scale
Summary of the method: as §1

[10] = test system: pitted morningglory; experiment: Test D pitted morningglory; assay type: in vivo, Ipomoea lacunosa; conditions: Preemergence, 0 to 100 scale
Summary of the method: as §1

[11] = test system: purple nutsedge; experiment: Test D purple nutsedge; assay type: in vivo, Cyperus rotundus; conditions: Preemergence, 0 to 100 scale
Summary of the method: as §1

[12] = test system: sandbur; experiment: Test D sandbur; assay type: in vivo, Cenchrus echinatus; conditions: Preemergence, 0 to 100 scale
Summary of the method: as §1

[13] = test system: Spanishneedles; experiment: Test D Spanishneedles; assay type: in vivo, Bidens bipinnata; conditions: Preemergence, 0 to 100 scale
Summary of the method: as §1

[14] = test system: surinam grass; experiment: Test D surinam grass; assay type: in vivo, Brachiaria decumbens; conditions: Preemergence, 0 to 100 scale
Summary of the method: as §1

[15] = test system: tall mallow; experiment: Test D tall mallow; assay type: in vivo, Malva sylvestris; conditions: Preemergence, 0 to 100 scale
Summary of the method: as §1

[16] = test system: Green foxtail; experiment: Test D green foxtail; assay type: in vivo; conditions: Preemergence, 0 to 100 scale
Summary of the method: as §1

[17] = test system: Green foxtail; experiment: Test D green foxtail; assay type: in vivo
Summary of the method: as §1

[18] = Rate 16 g/ha, 0 no injury, 100 complete control
[19] = Rate 32 g/ha, 0 no injury, 100 complete control
[20] = Rate 64 g/ha, 0 no injury, 100 complete control
[21] = Rate 125 g/ha, 0 no injury, 100 complete control
[22] = Rate 64 g/ha, Preemergence; 0 to 100 scale, 0 no injury, 100 complete control
[23] = Rate 125 g/ha, Preemergence; 0 to 100 scale, 0 no injury, 100 complete control

With `CCn1c(=O)on(C(=O)N(c2ccc(Cl)cc2)C(C)C)c1=O` [Compound 108] the “Plant response rating, Alexandergrass” value [1, 18] was 20, the “Plant response rating, Alexandergrass” value [1, 19] was 20 and the “Plant response rating, Alexandergrass” value [1, 20] was 85. For the same compound, the “Plant response rating, Alexandergrass” value [1, 21] was 98, the “Plant response rating, Alexandergrass” value ([1]; Rate 250 g/ha) was 100 and the “Plant response rating, Alexandergrass” value ([1]; Rate 500 g/ha) was 100. For the same compound, the “Plant response rating, C. ragweed” value [2, 18] was 0, the “Plant response rating, C. ragweed” value [2, 19] was 0 and the “Plant response rating, C. ragweed” value [2, 20] was 0. For the same compound, the “Plant response rating, C. ragweed” value [2, 21] was 0, the “Plant response rating, C. ragweed” value ([2]; Rate 250 g/ha) was 0 and the “Plant response rating, C. ragweed” value ([2]; Rate 500 g/ha) was 80. For the same compound, the “Plant response rating, Com. groundsel” value [3, 18] was 65, the “Plant response rating, Com. groundsel” value [3, 19] was 75 and the “Plant response rating, Com. groundsel” value [3, 20] was 85. For the same compound, the “Plant response rating, Com. groundsel” value [3, 21] was 100, the “Plant response rating, Com. groundsel” value ([3]; Rate 250 g/ha) was 100 and the “Plant response rating, Com. groundsel” value ([3]; Rate 500 g/ha) was 100. The “Plant response rating, Dallisgrass” value [4, 18] was 40, the “Plant response rating, Dallisgrass” value [4, 19] was 50 and the “Plant response rating, Dallisgrass” value [4, 20] was 100. For the same compound, the “Plant response rating, Dallisgrass” value [4, 21] was 100, the “Plant response rating, Dallisgrass” value ([4]; Rate 250 g/ha) was 100 and the “Plant response rating, Dallisgrass” value ([4]; Rate 500 g/ha) was 100. The “Plant response rating, Goosegrass” value [5, 18] was 60, the “Plant response rating, Goosegrass” value [5, 19] was 85 and the “Plant response rating, Goosegrass” value [5, 20] was 98. For the same compound, the “Plant response rating, Goosegrass” value [5, 21] was 100, the “Plant response rating, Goosegrass” value ([5]; Rate 250 g/ha) was 100 and the “Plant response rating, Goosegrass” value ([5]; Rate 500 g/ha) was 100. For the same compound, the “Plant response rating, Guineagrass” value [6, 18] was 0, the “Plant response rating, Guineagrass” value [6, 19] was 85 and the “Plant response rating, Guineagrass” value [6, 20] was 98. For the same compound, the “Plant response rating, Guineagrass” value [6, 21] was 98, the “Plant response rating, Guineagrass” value ([6]; Rate 250 g/ha) was 100 and the “Plant response rating, Guineagrass” value ([6]; Rate 500 g/ha) was 100. For the same compound, the “Plant response rating, Itchgrass” value [7, 18] was 0, the “Plant response rating, Itchgrass” value [7, 19] was 20 and the “Plant response rating, Itchgrass” value [7, 20] was 30. For the same compound, the “Plant response rating, Itchgrass” value [7, 21] was 40, the “Plant response rating, Itchgrass” value ([7]; Rate 250 g/ha) was 98 and the “Plant response rating, Itchgrass” value ([7]; Rate 500 g/ha) was 100. For the same compound, the “Plant response rating, Johnsongrass” value [8, 18] was 0, the “Plant response rating, Johnsongrass” value [8, 19] was 20 and the “Plant response rating, Johnsongrass” value [8, 20] was 20. For the same compound, the “Plant response rating, Johnsongrass” value [8, 21] was 40, the “Plant response rating, Johnsongrass” value ([8]; Rate 250 g/ha) was 85 and the “Plant response rating, Johnsongrass” value ([8]; Rate 500 g/ha) was 85. For the same compound, the “Plant response rating, Large crabgrass” value [9, 18] was 85, the “Plant response rating, Large crabgrass” value [9, 19] was 100 and the “Plant response rating, Large crabgrass” value [9, 20] was 100. The “Plant response rating, Large crabgrass” value [9, 21] was 100, the “Plant response rating, Large crabgrass” value ([9]; Rate 250 g/ha) was 100 and the “Plant response rating, Large crabgrass” value ([9]; Rate 500 g/ha) was 100. The “Plant response rating, P. morninglory” value [10, 18] was 0, the “Plant response rating, P. morninglory” value [10, 19] was 0 and the “Plant response rating, P. morninglory” value [10, 20] was 0. For the same compound, the “Plant response rating, P. morninglory” value [10, 21] was 0, the “Plant response rating, P. morninglory” value ([10]; Rate 250 g/ha) was 0 and the “Plant response rating, P. morninglory” value ([10]; Rate 500 g/ha) was 0. The “Plant response rating, Purple nutsedge” value [11, 18] was 0, the “Plant response rating, Purple nutsedge” value [11, 19] was 0 and the “Purple nutsedge plant response rating” value [11, 20] was 0. For the same compound, the “Purple nutsedge plant response rating” value [11, 21] was 10, the “Plant response rating, Purple nutsedge” value ([11]; Rate 250 g/ha) was 10 and the “Plant response rating, Purple nutsedge” value ([11]; Rate 500 g/ha) was 30. The “Plant response rating, Sandbur” value [12, 18] was 0, the “Plant response rating, Sandbur” value [12, 19] was 0 and the “Sandbur plant response rating” value [12, 20] was 30. The “Sandbur plant response rating” value [12, 21] was 98, the “Plant response rating, Sandbur” value ([12]; Rate 250 g/ha) was 98 and the “Plant response rating, Sandbur” value ([12]; Rate 500 g/ha) was 100. The “Plant response rating, Spanishneedles” value [13, 18] was 0, the “Plant response rating, Spanishneedles” value [13, 19] was 0 and the “Spanishneedles plant response rating” value [13, 20] was 0. For the same compound, the “Spanishneedles plant response rating” value [13, 21] was 0, the “Plant response rating, Spanishneedles” value ([13]; Rate 500 g/ha) was 20 and the “Plant response rating, Surinam grass” value [14, 18] was 0. For the same compound, the “Plant response rating, Surinam grass” value [14, 19] was 65, the “Surinam grass plant response rating” value [14, 20] was 65 and the “Surinam grass plant response rating” value [14, 21] was 98. The “Plant response rating, Surinam grass” value ([14]; Rate 250 g/ha) was 98, the “Plant response rating, Surinam grass” value ([14]; Rate 500 g/ha) was 100 and the “Plant response rating, Tall Mallow” value [15, 18] was 0. For the same compound, the “Plant response rating, Tall Mallow” value [15, 19] was 0, the “Tall Mallow plant response rating” value [15, 20] was 0 and the “Tall Mallow plant response rating” value [15, 21] was 10. The “Plant response rating, Tall Mallow” value ([15]; Rate 250 g/ha) was 45, the “Plant response rating, Tall Mallow” value ([15]; Rate 500 g/ha) was 98 and the “Plant response rating, Green foxtail” value ([16]; Rate 250 g/ha) was 100. The “Plant response rating, Green foxtail” value ([16]; Rate 500 g/ha) was 100, the “Plant response rating, Green foxtail” value ([17]; Preemergence; Rate 16 g/ha; 0 to 100 scale, 0 no injury, 100 complete control) was 40 and the “Plant response rating, Green foxtail” value ([17]; Preemergence; Rate 32 g/ha; 0 to 100 scale, 0 no injury, 100 complete control) was 100. The “Plant response rating, Green foxtail” value ([17]; Rate 16 g/ha; Preemergence; 0 to 100 scale, 0 no injury, 100 complete control) was 40, the “Plant response rating, Green foxtail” value ([17]; Rate 32 g/ha; Preemergence; 0 to 100 scale, 0 no injury, 100 complete control) was 100 and the “Green foxtail plant response rating” value [17, 22] was 100. The “Plant response rating, Green foxtail” value [17, 22] was 100, the “Green foxtail plant response rating” value [17, 23] was 100 and the “Plant response rating, Green foxtail” value [17, 23] was 100. For the same compound, the “Plant response rating, Green foxtail” value ([17]; Rate 250 g/ha; Preemergence; 0 to 100 scale) was 100 and the “Plant response rating, Green foxtail” value ([17]; Rate 500 g/ha, Preemergence; 0 to 100 scale) was 100.
